Measurements as given in publication PMC12040169 (PLOS Biology, 2025).

Experiment: in vitro
Settings: human, hela cells, % viability

Structure (SMILES) | viability at 28.5 h, 10 µM [%]
O=S(=O)(N1CCCCCC1)N1CCNCC1 [CBK269219C] | 96.5
Cc1ccccc1OCc1nn2c(C)nnc2s1 [CBK269220] | 100
COC(=O)c1ccc(N2CCN(C)CC2)c(NC(=O)c2cc(Br)ccc2OC)c1 [CBK269221] | 92
Cc1ccc(S(=O)(=O)NCCc2ccccn2)s1 [CBK269223] | 102
Cn1c(=O)c2c(nc(CN3CCOCC3)n2Cc2c(F)cccc2Cl)n(C)c1=O [CBK269224] | 98.9
Cc1nnc(SCC(=O)Nc2nonc2C)s1 [CBK269227] | 98.9
CSCCC(C(=O)O)n1c(S)nnc1-c1ccc2ccccc2n1 (centres unmarked) [CBK269230] | 99.5
COc1ccc(-c2oc3ccccc3c(=O)c2OCC(=O)O)cc1 [CBK269232] | 98.7
O=C(NCCCN1CCOCC1)Nc1ccccc1F [CBK269233] | 88.6
c1ccc(Cn2c(CN3CCCCC3)nc3ccccc32)cc1 [CBK269237] | 102
O=C(CCN1C(=O)c2ccc(Br)cc2C1=O)N1CCN(Cc2ccccc2)CC1 [CBK269238] | 104
COC(=O)c1ccc(NC(=O)CSc2nnc(-c3ccncc3)s2)cc1 [CBK269239] | 103
COc1ccc(/C=C/c2nc(C#N)c(NCc3cccnc3)o2)cc1OC [CBK269240] | 91.3
O=C(NCCc1cc2ccccc2[nH]1)Nc1cccc2ccccc12 [CBK269246] | 106
COc1ccccc1NC(=O)c1sc2nc(N3CCOCC3)c3c(c2c1N)CCCC3 [CBK269247] | 103
Cc1c(NC(=O)CN2CCCC(C)C2)ccc2nsnc12 (centres unmarked) [CBK269248] | 97.4
Cc1ccc(C(=O)N2CCN(S(=O)(=O)N3CCCCCC3)CC2)cc1 [CBK269249] | 101
CS(=O)(=O)N1CCN(c2ccccc2NC(=O)COc2ccccc2Cl)CC1 [CBK269250] | 103
O=C(O)c1cccc(-n2c(S)nnc2-c2cnccn2)c1 [CBK269252] | 104
O=C(COc1ccc(S(=O)(=O)N2CCCCC2)cc1Cl)NCc1ccccn1 [CBK269253] | 89.6
Cc1cc(S(=O)(=O)N2CCCCC2)ccc1OCC(=O)O [CBK269254] | 80
O=C(O)CCN1CCN(S(=O)(=O)c2ccc3ccccc3c2)CC1 [CBK269255] | 88.4

Structure (SMILES) | viability at 28.5 h, 10 µM [%]
O=C(c1cccs1)N(Cc1ccco1)c1ccc(O)cc1 [CBK269256] | 88.9
Cn1c(=O)c2c(nc(CN3CCOCC3)n2CCc2ccccc2)n(C)c1=O [CBK269264] | 89.3
COc1ccccc1N1CCn2c1nc1c2c(=O)n(CCN2CCOCC2)c(=O)n1C [CBK269265] | 93.4
Cc1ccc(S(=O)(=O)CCOc2nc3c(C(F)(F)F)cc(C4CC4)nc3o2)cc1 [CBK269267] | 111
COC(=O)c1c(NC(=O)C(=O)NCc2ccco2)sc2c1CCCC2 [CBK269269] | 87.5
CN1CCN(CC(=O)C(C#N)c2ccccc2)CC1 (centres unmarked) [CBK269270] | 87.7
COc1ccc(-c2noc(CNC(=O)Cc3ccc(-c4ccccc4)cc3)n2)cc1 [CBK269272] | 105
Cc1ccc2cc(CN(Cc3ccco3)C(=O)c3cccs3)c(O)nc2c1 [CBK269274] | 105
COC(=O)c1ccccc1NC(=O)CC1Nc2ccccc2NC1=O (centres unmarked) [CBK269276A] | 91.9
c1ccc2c(c1)OCC(c1nn3cnnc3s1)O2 (centres unmarked) [CBK269277] | 111
Cn1c(=O)c2c(nc(CN3CCCCC3)n2CCCO)n(C)c1=O [CBK269280] | 106
Cn1c(=O)c2c(nc(CN3CCCCC3)n2CCN2CCOCC2)n(C)c1=O [CBK269281] | 99.2
Cn1c(=O)[nH]c(=O)c2c1nc(Sc1ncccn1)n2CCCc1ccccc1 [CBK269282] | 86.3
Cc1onc(-c2ccccc2Cl)c1C(=O)N(Cc1nc(-c2ccccc2)no1)C(C)C [CBK269289] | 113
CCN1CCN(C(=S)c2ccc(OCC(N)=O)c(OC)c2)CC1 [CBK269293] | 86.1
COc1ccc2c(CCNC(=O)C(c3ccccc3)c3ccccc3)c[nH]c2c1 [CBK269294] | 81.3
CC(=O)Nc1cccc(C(=O)N(Cc2ccccc2)Cc2ccccc2)c1 [CBK269295] | 91.6
COc1ccc2[nH]cc(CCNC(=O)c3ccc(NC(C)=O)cc3)c2c1 [CBK269296] | 96.6
Cc1ccc2cc(CN(Cc3ccco3)C(=O)C3CCCO3)c(O)nc2c1 (centres unmarked) [CBK269300] | 103
O=C(CC(C(=O)O)n1cncn1)c1ccc(Br)cc1 (centres unmarked) [CBK269305] | 103
CN1CCN(Cc2nc3c(c(=O)n(C)c(=O)n3C)n2Cc2ccc(Br)cc2)CC1 [CBK269310] | 87.9
Cc1c(C(=O)C2=C(O)C(=O)N(CCCN(C)C)C2c2cccnc2)cnn1-c1ccccc1 (centres unmarked) [CBK269312] | 93.8

Structure (SMILES) | viability at 28.5 h, 10 µM [%]
C=CCNS(=O)(=O)c1ccc(NC(=O)Nc2ccc(Cl)cc2)cc1 [CBK269315] | 101
Fc1c(F)c(Oc2ccccc2Cl)c(F)c(F)c1/C=C/CN1CCOCC1 [CBK269318C] | 96.7
COc1ccc(OC)c(-n2c(S)nnc2Cn2c(-c3ccccn3)nc3ccccc32)c1 [CBK269320] | 93.5
O=C(O)c1ccccc1SC1CC(=O)N(CCc2ccccc2)C1=O (centres unmarked) [CBK269321] | 93.6
CC1CCCCN1Cc1nc2c(c(=O)n(C)c(=O)n2C)n1CCCc1ccccc1 (centres unmarked) [CBK269326] | 97
Cn1c(=O)n(CCN2CCOCC2)c(=O)c2c1nc1n2CCN1c1ccccc1 [CBK269328] | 95.1
Cc1ccc2cc(CN(Cc3ccccc3)S(C)(=O)=O)c(O)nc2c1 [CBK269329] | 94.4
Cc1ccc2nsnc2c1NC(=O)CN1CCCCC1 [CBK269330] | 110
Cc1cccc(NC(=O)C(c2ccccc2)N2CCOCC2)c1 (centres unmarked) [CBK269331] | 103
N#CC(C(=O)CN1CCCC1)c1ccccc1 (centres unmarked) [CBK269333] | 98.1
Cc1ncc([N+](=O)[O-])n1CC(=O)Nc1ccccc1F [CBK269335] | 86.4
COc1ccccc1CC(=O)NCc1nc(-c2cccc(C)c2)no1 [CBK269336] | 96.7
O=C1CC(Nc2ccc(N3CCOCC3)cc2)C(=O)N1CCc1ccccc1 (centres unmarked) [CBK269339] | 111
CC1CN(Cc2nc3c(c(=O)n(C)c(=O)n3C)n2CCN2CCOCC2)CC(C)O1 (centres unmarked) [CBK269340] | 93.3
Cc1c(NC(=O)CSc2nnc(-c3ccc4ccccc4n3)s2)c(=O)n(-c2ccccc2)n1C [CBK269341] | 92.7
Cn1c(N)c(C(=O)NCC2CCCO2)c2nc3ccccc3nc21 (centres unmarked) [CBK269342] | 96.8
CCN1CCN(c2ccc(NC(=O)c3cc(-n4cnnc4)ccc3Cl)cc2Cl)CC1 [CBK269343] | 88.1
COc1ccccc1NC(=O)Cn1c(=O)oc2cc(Cl)ccc21 [CBK269344] | 94.6
Cc1cc(C)n(C(=O)CCNS(=O)(=O)c2ccc(Cl)cc2)n1 [CBK269348] | 111
O=C(CSc1nc(=O)cc(O)[nH]1)N1CCc2ccccc21 [CBK269350] | 88.7
O=C(NCCNC(=O)c1ccccc1I)c1ccccn1 [CBK269357] | 89.4
